# Values quoted from earlier work in patent publication US20060275243A1, “Cosmetic or therapeutic combination preparation with theanine” (ROVI GmbH & Co. Kosmetische Rohstoffe KG, priority 2005, published 2006).
# Conditions: investigations referred to in the description
smiles,measurement,value
CCNC(=O)CC[C@H](N)C(=O)O [theanine],effect on the cramp-triggering effect of caffeine,can inhibit the cramp-triggering effect of caffeine
